Source: US20170119907A1, “Targeted Therapeutics” (MEDIVATION TECHNOLOGIES, INC., priority 2014, published 2017)

What was measured:
[1] = system: rabbit dorsal femoral condyle explants; assay: Binding to rabbit dorsal femoral condyle explants (fluorescence staining); details: 100 μM in PBS, 30 min; 530/600 nm; FIGS. 5A, 5B
Experimental: Rabbit dorsal femoral condyle explants were incubated with PBS or 100 μM Compound 4 or Compound 20 in PBS for 30 min. Explants were washed twice in excess PBS. Staining of explants was determined using the 530/600 nm filter set on the Molecular Imaging Gel Logic system.

human MSCs [2] = assay: Binding to human MSCs (visual inspection of staining); format: cell-based; details: 5 μM or 10 μM, 30 min; FIG. 4A
Experimental: Human MSCs were incubated without Compound 4 or with Compound 4 (5 μM or 10 μM) for 30 min and then washed twice with 1 mL PBS. Samples were visually inspected to determine staining

Raji cells [3] = assay: Adherence of Raji cells to rabbit dorsal femoral condyle explants; format: cell-based; details: photomicrographs, FIG. 6B
human MSCs [4] = assay: Adherence of human MSCs to rabbit dorsal femoral condyle explants; format: cell-based; details: photomicrographs, FIG. 6A
[5] = system: partial thickness chondral defects in the medial femoral condyle; assay: Chondral defect model, retention of Compound 4-augmented MSCs (histological cell retention score); format: in vivo, sheep; details: for Cell Retention (average score, n = 5): score 0-2
Experimental: The capacity of ovine MSCs derived from bone marrow and augmented with Compound 4 to bind to lesions in cartilage in vivo was evaluated in a chondral defect model.
Bone marrow aspirate was collected from fifteen healthy nave female sheep and processed in vitro to attain a population of mesenchymal stem cells (MSCs) for each sheep created by expansion of adherent cells. MSCs were frozen at passage 1 (P1).
Two circular partial thickness chondral defects were surgically created bilaterally in the medial femoral condyle of each sheep, thereby creating four defects per sheep. Once the medial femoral condyle was surgically exposed, two partial thickness circular defects were created in the cartilage of the anterior aspect, separated by 2-3 mm. Each defect was created by penetrating the cartilage with a 7 mm diameter biopsy punch to delineate the margins followed by removal of cartilage within the defect margin with a scalpel to a depth of approximately 0.5 mm-0.8 mm without penetrating the surface of the calcified cartilage. Within the same animal, each defect received one of four experimental treatments: • a. D1: Empty Control: defect left unfilled; • b. D2: Vehicle Control: cells incubated in PBS delivered to the defect; • c. D3: 100 μM Compound 4 incubated in defect followed by delivery of cells to the defect; and • d. D4: Cells were incubated with 10 μM Compound 4 for 30 min and together they were delivered to defect.
Sheep were divided into three groups of 5 sheep. One group was sacrificed on day 1 after surgery, the second group was sacrificed on day 7, and the third group was sacrificed on day 14 after surgery.
The complete intact joint was harvested and transported to the laboratory. The joint was exposed, and defects were scored macroscopically prior to separating out bone blocks containing the defects with a band saw. Defects were further trimmed and individually separated using a fine ISOMET® saw prior to fixation in 10% neutral buffered formalin. Tissue was further trimmed for histological processing, fixed, and decalcified for at least one week.
As each sample completed decalcification, it was transferred to 40% EtOH until all samples were decalcified and the last sample had been in 40% EtOH for at least 24 hours.
Following decalcification, specimens were prepared for histology staining with safranin-orange, fast green and haematoxylin-eosin.
Histological Assessment of Compound 4-Augmented Cell Retention
Histological slides were stained with Haematoxylin & Eosin and Safranin Orange for evaluation of cell retention and the early stages of cartilage repair. Cell retention was assessed using the following scoring system: […]

[6] = system: human MSCs / rabbit dorsal femoral condyle explants; assay: Adherence of calcein-labeled human MSCs to rabbit dorsal femoral condyle explants; format: cell-based; details: MSCs incubated with compound (Compound 4: 5 μM or 10 μM), 30 min or 10 min; 475/535 nm; FIG. 6A
Experimental: Human MSCs were labeled with calcein for 30 min, washed with PBS, and incubated with Compound 4 (5 μM or 10 μM) or with PBS for 30 min. Rabbit dorsal femoral condyle explants were then incubated for 30 min with (1) the PBS-incubated, calcein-labeled MSCs, (2) the calcein-labeled MSCs incubated with 5 μM Compound 4, or (3) the calcein-labeled MSCs incubated with 10 μM Compound 4. Explants were washed twice with excess PBS, and the 475/535 nm filter set on the Molecular Imaging Gel Logic system was used to detect the binding of MSCs to the explants by detecting the calcein. In another experiment, the procedure was repeated with two batches of Compound 4, and with Compound 20, with an incubation time of 10 min instead of 30 min.

[7] = system: Raji cells / rabbit dorsal femoral condyle explants; assay: Adherence of calcein-labeled Raji cells to rabbit dorsal femoral condyle explants; format: cell-based; details: cells incubated with 10 μM compound in PBS, 30 min; 475/535 nm; FIG. 6B
Experimental: Raji cells were labeled with calcein for 30 min, washed with PBS, and incubated with Compound 4 or Compound 20 (10 μM in PBS) or with PBS for 30 min. Cells were washed in PBS. Rabbit dorsal femoral condyle explants were then incubated for 30 min with (1) the PBS-incubated, calcein-labeled Raji cells or (2) the calcein-labeled Raji cells that had been incubated with 10 μM Compound 4 or Compound 20. Explants were washed twice with excess PBS, and the 475/535 nm filter set on the Molecular Imaging Gel Logic system was used to detect the binding of […] to the explants by detecting the calcein.

Raji cells [8] = assay: Binding to Raji cells (visual inspection of staining); format: cell-based; details: 10 μM in PBS, 30 min; FIG. 4B
Experimental: Raji cells were incubated in PBS without Compounds 4 or 20 or with 10 μM Compound 4 or 10 μM Compound 20 in PBS for 30 min and then washed twice with 1 mL PBS. Samples were visually inspected to determine staining

Raji cells [9] = assay: Binding to Raji cells (fluorescence, Gel Logic system); format: cell-based; details: 10 μM in PBS; 1, 5, 15 or 30 minutes; 530 nm/600 nm; FIG. 2B
Experimental: 10^6 Raji cells were incubated with 10 μM Compound 4 or 10 μM Compound 20 in PBS or with PBS alone for 1, 5, 15 or 30 minutes. Cells were washed once in PBS and then the fluorescence of Compound 4 or Compound 20 was analyzed in a Gel Logic system with 530 nm/600 nm excitation/emission settings.

[10] = system: rabbit dorsal femoral condyle explants; assay: Binding to and staining of rabbit dorsal femoral condyle explants; details: photomicrographs, FIGS. 5A-B
Raji cells [11] = assay: Binding to and staining of Raji cells (Example B1b); format: cell-based; details: photomicrographs; for binding to Raji cells: FIG. 2B, Example B1b; for binding to and staining of Raji cells: FIG. 4B
Raji cells [12] = assay: Viability of Raji cells treated with compound (Example B2); format: cell-based; details: concentrations of 20 μM or below, FIG. 3C

Row | Compound | Binding to rabbit dorsal femoral condyle explants (fluorescence) [1] | Binding to human MSCs (visual staining) (human MSCs [2]) | adherence of Raji cells to rabbit dorsal femoral condyle explants (Raji cells [3]) | adherence of human MSCs to rabbit dorsal femoral condyle explants (human MSCs [4]) | Cell Retention (average score, n = 5) ([5]; D3: 100 μM incubated in defect followed by delivery of cells, Day 1) | Cell Retention (average score, n = 5) ([5]; D3: 100 μM incubated in defect followed by delivery of cells, Day 7) | Cell Retention (average score, n = 5) ([5]; D3: 100 μM incubated in defect followed by delivery of cells, Day 14) | Cell Retention (average score, n = 5) ([5]; D4: cells pre-incubated with 10 μM for 30 min, then delivered to defect, Day 1) | Cell Retention (average score, n = 5) ([5]; D4: cells pre-incubated with 10 μM for 30 min, then delivered to defect, Day 7) | Cell Retention (average score, n = 5) ([5]; D4: cells pre-incubated with 10 μM for 30 min, then delivered to defect, Day 14) | MSC retention (in words) ([5]; sheep chondral defect model, summary of Table B9) | Adherence of calcein-labeled human MSCs to explants [6] | Adherence of calcein-labeled Raji cells to explants [7] | Binding to Raji cells (visual staining) (Raji cells [8]) | Binding to Raji cells (fluorescence) (Raji cells [9]) | binding to and staining of rabbit dorsal femoral condyle explants [10] | binding to Raji cells (Raji cells [11]) | binding to and staining of Raji cells (Raji cells [11]) | viability of Raji cells relative to untreated control Raji cells (Raji cells [12])
1 | Cc1cc2nc3cc(C)c(NCCCCCCCCNc4cc5c(cc4C)nc4cc(C)c(N)cc4[n+]5-c4ccccc4)cc3[n+](-c3ccccc3)c2cc1N.[Cl-].[Cl-] [Compound 4, 7,7′-(octane-1,8-diylbis(azanediyl))bis(3-amino-2,8-dimethyl-5-phenylphenazin-5-ium) chloride] | strong fluorescence | binds human MSCs | promote adherence | promote adherence | 0.75 | 0.75 | 1.2 | 0.4 | 1.0 | 1.25 | promotes MSC retention | promote adherence | promoted adherence | bind to Raji cells | bind to Raji cells | bind to and stain | binding | bind to and stain | 
2 | Cc1cc2nc3cc(C)c(NCCCCCCNC(=O)c4ccc(-c5ccc(C(=O)NCCCCCCNc6cc7c(cc6C)nc6cc(C)c(N)cc6[n+]7-c6ccccc6)cc5)cc4)cc3[n+](-c3ccccc3)c2cc1N.[Cl-].[Cl-] [Compound 20, (3-amino-7-{[6-({4-[4-({6-[(7-amino-5-chloranuide-2,8-dimethyl-5-phenyl-5λ^6,10-phenazin-5-ylium-3-yl)amino]hexyl}carbamoyl)phenyl]phenyl}formamido)hexyl]amino}-2,8-dimethyl-5-phenyl-5λ^6,10-phenazin-5-ylium-5-e)chloranuide] | strong fluorescence |  | promote adherence | promote adherence |  |  |  |  |  |  |  | promote adherence | promoted adherence | bind to Raji cells | bind to Raji cells | bind to and stain | binding | bind to and stain | do not affect
